Read-outs that look alike come from different tables or passages of the source.
Molecular target: T1, human SARM1(50-724) (Homo sapiens, UniProt Q6SZW1)
T1 construct: 40 nM human SARM1(50-724)
T1 sequence (Q6SZW1 50-724): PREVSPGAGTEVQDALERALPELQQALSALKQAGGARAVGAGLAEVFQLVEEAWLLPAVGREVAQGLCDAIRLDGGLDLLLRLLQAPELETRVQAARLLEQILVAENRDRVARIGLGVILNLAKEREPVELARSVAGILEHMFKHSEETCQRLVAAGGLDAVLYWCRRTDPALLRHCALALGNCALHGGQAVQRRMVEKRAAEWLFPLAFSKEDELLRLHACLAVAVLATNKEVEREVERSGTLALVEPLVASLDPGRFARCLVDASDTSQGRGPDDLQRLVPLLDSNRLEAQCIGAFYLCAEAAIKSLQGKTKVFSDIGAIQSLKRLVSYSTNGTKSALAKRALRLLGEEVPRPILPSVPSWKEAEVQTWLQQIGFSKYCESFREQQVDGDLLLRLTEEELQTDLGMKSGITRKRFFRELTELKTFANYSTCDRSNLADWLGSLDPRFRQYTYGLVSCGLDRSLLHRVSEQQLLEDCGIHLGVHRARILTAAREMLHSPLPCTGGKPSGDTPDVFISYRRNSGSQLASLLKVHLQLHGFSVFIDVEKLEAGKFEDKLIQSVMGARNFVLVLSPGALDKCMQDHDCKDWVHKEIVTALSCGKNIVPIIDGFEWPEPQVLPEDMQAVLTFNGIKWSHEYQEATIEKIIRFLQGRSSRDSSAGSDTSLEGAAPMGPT
Test: SARM1 NADase biochemical assay (HPLC peak areas of NAD and NAM)
Conditions: for IC50: dose-response, 1:3 serial dilution from 100 μM, 40 nM SARM1, 0.3 mM NMN, 20 μM NAD, 60 min rt
Procedure: The reaction was incubated at room temperature for 60 minutes and quenched with 20 μL of 0.4% formic acid. […] Total run time for each sample was 4 minutes. […] Samples were run at a flow rate of 0.8 mL/min at 55° C. Peak areas of NAD and NAM were determined using OpenLAB CDS (Chem Station edition) software. For dose-response, the compound was diluted serially 1:3 in DMSO and added to the reaction starting at a final compound concentration of 100 μM in 1% DMSO.

[1] = read-out: Avg NAD % inhibition at 50 μM
[2] = read-out: Avg NAM % inhibition at 50 μM
[3] = 50 μM compound, NAD peak area, read-out: Avg NAD % inhibition at 50 μM
[4] = 50 μM compound, NAM peak area, read-out: Avg NAM % inhibition at 50 μM

Compound: O=S(=O)(Nc1ccn(Cc2ccncc2)n1)c1ccccc1 [Example 70, N-(1-(Pyridin-4-ylmethyl)-1H-pyrazol-3-yl)benzenesulfonamide]
- inhibition at 50 µM [1]: 51 to 100%
- inhibition at 50 µM [2]: 51 to 100%

Compound: CC1(C)Oc2ccc(C(=O)Nc3ccn(Cc4ccncc4)n3)cc2O1 [Example 72, 2,2-Dimethyl-N-(1-(pyridin-4-ylmethyl)-1H-pyrazol-3-yl)benzo[d][1,3]dioxole-5-carboxamide]
- inhibition at 50 µM [3]: 0 to 50%
- inhibition at 50 µM [4]: 0 to 50%

Compound: CC(c1ccncc1)c1ccn(CC#N)n1 (single isomer, unassigned) [Example 12b]
- IC50: < 1 µM

Compound: O=C(Nc1ccn(Cc2ccncc2)n1)c1ccc(O)cc1 [Example 45, 4-Hydroxy-N-(1-(pyridin-4-ylmethyl)-1H-pyrazol-3-yl)benzamide]
- inhibition at 50 µM [3]: 0 to 50%
- inhibition at 50 µM [4]: 0 to 50%

Compound: c1cc(Cn2ccc(NC3CC3)n2)ccn1 [Example 98, N-Cyclopropyl-1-(pyridin-4-ylmethyl)-1H-pyrazol-3-amine]
- inhibition at 50 µM [3]: 0 to 50%
- inhibition at 50 µM [4]: 0 to 50%

Compound: CC(c1ccncc1)n1ccc(NC(C)C(F)(F)F)n1 (racemic) [Example 100, (rac)-1-(1-(Pyridin-4-yl)ethyl)-N-(1,1,1-trifluoropropan-2-yl)-1H-pyrazol-3-amine]
- IC50: 1 to 10 µM

Compound: COc1ccc(C(=O)Nc2ccn(Cc3ccncc3)n2)cc1OC [Example 41, 3,4-Dimethoxy-N-(1-(pyridin-4-ylmethyl)-1H-pyrazol-3-yl)benzamide]
- inhibition at 50 µM [1]: 0 to 50%
- inhibition at 50 µM [2]: 0 to 50%

Compound: O=C(Nc1ccn(Cc2ccncc2)n1)c1cc(Br)cs1 [Example 65, 4-Bromo-N-(1-(pyridin-4-ylmethyl)-1H-pyrazol-3-yl)thiophene-2-carboxamide]
- inhibition at 50 µM [3]: 51 to 100%
- inhibition at 50 µM [4]: 51 to 100%
- IC50: 10 to 100 µM

Compound: COc1ccccc1C(=O)Nc1ccn(Cc2ccncc2)n1 [Example 44, 2-Methoxy-N-(1-(pyridin-4-ylmethyl)-1H-pyrazol-3-yl)benzamide]
- inhibition at 50 µM [1]: 0 to 50%
- inhibition at 50 µM [2]: 0 to 50%

Compound: CC(c1ccn(CC(F)(F)F)n1)c1ccncc1Cl (racemic) [Example 112, (rac)-3-Chloro-4-(1-(1-(2,2,2-trifluoroethyl)-1H-pyrazol-3-yl)ethyl)pyridine]
- IC50: 1 to 10 µM

Compound: c1cc(Cn2ccc(NC3CCC3)n2)ccn1 [Example 97, N-Cyclobutyl-1-(pyridin-4-ylmethyl)-1H-pyrazol-3-amine]
- inhibition at 50 µM [3]: 0 to 50%
- inhibition at 50 µM [4]: 0 to 50%

Compound: O=C(Nc1ccn(Cc2ccncc2)n1)c1cccnc1 [Example 62, N-(1-(Pyridin-4-ylmethyl)-1H-pyrazol-3-yl)nicotinamide]
- inhibition at 50 µM [1]: 0 to 50%
- inhibition at 50 µM [2]: 0 to 50%

Compound: c1cc(Cn2ccc(NCC3CCC3)n2)ccn1 [Example 95, N-(Cyclobutylmethyl)-1-(pyridin-4-ylmethyl)-1H-pyrazol-3-amine]
- inhibition at 50 µM [3]: 0 to 50%
- inhibition at 50 µM [4]: 0 to 50%

Compound: CCCNc1ccn(Cc2ccncc2)n1 [Example 94, N-Propyl-1-(pyridin-4-ylmethyl)-1H-pyrazol-3-amine]
- inhibition at 50 µM [3]: 0 to 50%
- inhibition at 50 µM [4]: 0 to 50%

Compound: CC(c1ccncc1)n1ccc(C=O)n1 (racemic) [Example 108, (rac)-1-[1-(Pyridin-4-yl)ethyl]-1H-pyrazole-3-carbaldehyde]
- inhibition at 50 µM [3]: 0 to 50%
- inhibition at 50 µM [4]: 0 to 50%

Compound: CC(c1ccncc1)c1ccn(CC(F)F)n1 (racemic) [Example 18, (rac)-4-(1-(1-(2,2-Difluoroethyl)-1H-pyrazol-3-yl)ethyl)pyridine]
- IC50: 1 to 10 µM

Compound: (R)-2-(1-(1-(pyridin-4-yl)ethyl)-1H-pyrazol-3-yl)acetonitrile and (S)-2-(1-(1-(pyridin-4-yl)ethyl)-1H-pyrazol-3-yl)acetonitrile [Example 28]
- IC50: 1 to 10 µM

Compound: O=C(Nc1ccn(Cc2ccncc2)n1)c1ccccc1 [Example 69, N-(1-(Pyridin-4-ylmethyl)-1H-pyrazol-3-yl)benzamide]
- inhibition at 50 µM [1]: 51 to 100%
- inhibition at 50 µM [2]: 51 to 100%

Compound: (S)—N-(2,2-Difluoroethyl)-1-(1-(pyridin-4-yl)ethyl)-1H-pyrazol-3-amine and (R)—N-(2,2-Difluoroethyl)-1-(1-(pyridin-4-yl)ethyl)-1H-pyrazol-3-amine [Example 8b]
- IC50: < 1 µM

Compound: FC(F)(F)Cn1ccc(C(Cl)c2ccncc2)n1 (racemic) [Example 81, (rac)-4-(Chloro(1-(2,2,2-trifluoroethyl)-1H-pyrazol-3-yl)methyl)pyridine]
- IC50: 10 to 100 µM

Compound: O=S(=O)(Cc1ccccc1)Nc1ccn(Cc2ccncc2)n1 [Example 71, 1-Phenyl-N-(1-(pyridin-4-ylmethyl)-1H-pyrazol-3-yl)methanesulfonamide]
- inhibition at 50 µM [3]: 0 to 50%
- inhibition at 50 µM [4]: 0 to 50%

Compound: N#CCc1ccn(Cc2ccncc2)n1 [Example 30, 2-(1-(Pyridin-4-ylmethyl)-1H-pyrazol-3-yl)acetonitrile]
- IC50: 1 to 10 µM

Compound: [2H]C([2H])([2H])C(c1ccncc1)c1ccn(CC(F)(F)F)n1 (racemic) [Example 21, (rac)-4-(1-(1-(2,2,2-Trifluoroethyl)-1H-pyrazol-3-yl)ethyl-2,2,2-d3)pyridine]
- IC50: 1 to 10 µM

Compound: [2H]C([2H])([2H])C(c1ccncc1)c1ccn(CC(F)F)n1 (racemic) [Example 25, (rac)-4-(1-(1-(2,2-Difluoroethyl)-1H-pyrazol-3-yl)ethyl-2,2,2-d3)pyridine]
- IC50: 1 to 10 µM

Compound: O=C(Nc1ccn(Cc2ccncc2)n1)c1ccc(Cl)cc1 [Example 55, 4-Chloro-N-(1-(pyridin-4-ylmethyl)-1H-pyrazol-3-yl)benzamide]
- inhibition at 50 µM [1]: 51 to 100%
- inhibition at 50 µM [2]: 51 to 100%

Compound: C[C@@H](c1ccncc1)n1ccc(NCC(F)(F)F)n1 [Example 2, (S)-1-(1-(Pyridin-4-yl)ethyl)-N-(2,2,2-trifluoroethyl)-1H-pyrazol-3-amine]
- IC50: < 1 µM

Compound: CC(=O)Nc1ccn(Cc2ccncc2)n1 [Example 87, N-(1-(Pyridin-4-ylmethyl)-1H-pyrazol-3-yl)acetamide]
- inhibition at 50 µM [1]: 0 to 50%
- inhibition at 50 µM [2]: 0 to 50%

Compound: FC(F)(F)C(F)(F)c1ccn(Cc2ccncc2)n1 [Example 103, 4-{[3-(1,1,2,2,2-Pentafluoroethyl)-1H-pyrazol-1-yl]methyl}pyridine]
- IC50: 1 to 10 µM

Compound: CN(c1ccn(Cc2ccncc2)n1)S(=O)(=O)c1cccc(F)c1 [Example 77, 3-Fluoro-N-methyl-N-(1-(pyridin-4-ylmethyl)-1H-pyrazol-3-yl)benzenesulfonamide]
- inhibition at 50 µM [1]: 0 to 50%
- inhibition at 50 µM [2]: 0 to 50%

Compound: N#Cc1ccccc1C(=O)Nc1ccn(Cc2ccncc2)n1 [Example 51, 2-Cyano-N-(1-(pyridin-4-ylmethyl)-1H-pyrazol-3-yl)benzamide]
- inhibition at 50 µM [1]: 0 to 50%
- inhibition at 50 µM [2]: 0 to 50%

Compound: [2H]C([2H])([2H])C([2H])(c1ccncc1)c1ccn(CC(F)(F)F)n1 (racemic) [Example 80, (rac)-4-(1-(1-(2,2,2-Trifluoroethyl)-1H-pyrazol-3-yl)ethyl-1,2,2,2-d4)pyridine]
- IC50: < 1 µM

Compound: O=C(Nc1ccn(Cc2ccncc2)n1)c1csc(Cl)c1 [Example 66, 5-Chloro-N-(1-(pyridin-4-ylmethyl)-1H-pyrazol-3-yl)thiophene-3-carboxamide]
- IC50: 1 to 10 µM

Compound: (R)-3-Fluoro-4-(1-(1-(2,2,2-trifluoroethyl)-1H-pyrazol-3-yl)ethyl)pyridine and (S)-3-Fluoro-4-(1-(1-(2,2,2-trifluoroethyl)-1H-pyrazol-3-yl)ethyl)pyridine [Example 78]
- IC50: 1 to 10 µM

Compound: CC(c1ccncc1)c1ccn(CC#N)n1 (single isomer, unassigned) [Example 12a]
- IC50: 1 to 10 µM

Compound: N#Cc1ccc(C(=O)Nc2ccn(Cc3ccncc3)n2)cc1 [Example 52, 4-Cyano-N-(1-(pyridin-4-ylmethyl)-1H-pyrazol-3-yl)benzamide]
- inhibition at 50 µM [3]: 0 to 50%
- inhibition at 50 µM [4]: 0 to 50%

Compound: Cc1cc(C(=O)Nc2ccn(Cc3ccncc3)n2)cs1 [Example 67, 5-Methyl-N-(1-(pyridin-4-ylmethyl)-1H-pyrazol-3-yl)thiophene-3-carboxamide]
- inhibition at 50 µM [3]: 51 to 100%
- inhibition at 50 µM [4]: 0 to 50%

Compound: CC(c1ccncc1)n1ccc(N(C)c2nccs2)n1 (racemic) [Example 91, (rac)-N-Methyl-N-(1-(1-(pyridin-4-yl)ethyl)-1H-pyrazol-3-yl)thiazol-2-amine]
- inhibition at 50 µM [1]: 0 to 50%
- inhibition at 50 µM [2]: 0 to 50%

Compound: Cc1cc(Cc2ccncc2)nn1CC(F)(F)F [Example 83, 4-((5-Methyl-1-(2,2,2-trifluoroethyl)-1H-pyrazol-3-yl)methyl)pyridine]
- IC50: 10 to 100 µM

Source: patent US11945796B2, “Substituted pyridine derivatives as SARM1 inhibitors” (Nura Bio, Inc., priority 2020, dated 2024)
